Reference: ChEMBL document CHEMBL1154680, “Alkyl and dialkylaminoethyl derivatives of 5-amino-2-azabicyclo[3.2.2]nonanes and their antiplasmodial and antitrypanosomal activities” (Eur J Med Chem, 2010)

Experiments:
[1] = Selectivity index, ratio of IC50 for rat L6 cells to IC50 for Trypanosoma brucei rhodesiense STIB 900; format: toxicity, cell-based; details: read-out: Ratio IC50
[2] = Selectivity index, ratio of IC50 for rat L6 cells to IC50 for chloroquine and pyrimethamine-resistant Plasmodium falciparum K1; format: toxicity, cell-based; details: read-out: Ratio IC50
[3] = tested on: Trypanosoma brucei rhodesiense; test: […] activity against Trypanosoma brucei rhodesiense STIB 900 by microplate assay; format: functional, organism-based
[4] = tested on: L6; test: Cytotoxicity against rat L6 cells; format: cell-based
[5] = tested on: Plasmodium falciparum; test: Antiplasmodial activity against chloroquine and pyrimethamine-resistant Plasmodium falciparum K1 by microplate assay; format: functional, organism-based

| Compound | selectivity ratio [1] | selectivity ratio [2] | IC50 [3] | IC50 [4] | IC50 [5] |
| --- | --- | --- | --- | --- | --- |
| Clc1ccc(C2CC3(N4CCCCC4)CCNC2C(c2ccc(Cl)cc2)C3)cc1 (stereo not given) | 125 | 17.6 | – | – | – |
| Clc1ccc(C2CC3(N4CCCC4)CCNC2C(c2ccc(Cl)cc2)C3)cc1 (stereo not given) | 152 | 40.2 | – | – | – |
| CN(C)C12CCNC(C(c3ccc(Cl)cc3)C1)C(c1ccc(Cl)cc1)C2 (stereo not given) | 143 | 21.3 | – | – | – |
| CN(C)C12CCN(Cc3ccccc3)C(C(c3ccccc3)C1)C(c1ccccc1)C2 (racemic) | 5.2 | 12.2 | 1410 nM | 7330 nM | 600 nM |
| c1ccc(CN2CCC3(N4CCCC4)CC(c4ccccc4)C2C(c2ccccc2)C3)cc1 (racemic) | 5.17 | 5.67 | 900 nM | 4650 nM | 820 nM |
| Clc1ccc(C2CC3(N4CCCC4)CCN(CCc4ccccc4)C2C(c2ccc(Cl)cc2)C3)cc1 (racemic) | 3.7 | 8.12 | 1140 nM | 4220 nM | 520 nM |
| CN1CCC2(N3CCCC3)CC(c3ccc(Cl)cc3)C1C(c1ccc(Cl)cc1)C2 (racemic) | 21 | 8.44 | 350 nM | 7340 nM | 870 nM |
| c1ccc(CCN2CCC3(N4CCCC4)CC(c4ccccc4)C2C(c2ccccc2)C3)cc1 (racemic) | 3.97 | 3.84 | 930 nM | 3690 nM | 960 nM |
| CN1CCC2(N(C)C)CC(c3ccccc3)C1C(c1ccccc1)C2 (racemic) | 61.9 | – | 1760 nM | 109000 nM | – |
| CN(C)C12CCN(CCN3CCCC3)C(C(c3ccccc3)C1)C(c1ccccc1)C2 (racemic) | 60.9 | 136 | 1320 nM | 80400 nM | 590 nM |
| c1ccc(CCN2CCC3(N4CCCCC4)CC(c4ccccc4)C2C(c2ccccc2)C3)cc1 (racemic) | 7 | 11.8 | 1200 nM | 8400 nM | 710 nM |
| CN1CCC2(N3CCCC3)CC(c3ccccc3)C1C(c1ccccc1)C2 (racemic) | 49.5 | 53.5 | 1860 nM | 92100 nM | 1720 nM |
| CN(C)C12CCN(CCc3ccccc3)C(C(c3ccccc3)C1)C(c1ccccc1)C2 (racemic) | 8.07 | 38.3 | 570 nM | 4600 nM | 120 nM |
| CN(C)C12CCN(CCc3ccccc3)C(C(c3ccc(Cl)cc3)C1)C(c1ccc(Cl)cc1)C2 (racemic) | 3.66 | 7.23 | 930 nM | 3400 nM | 470 nM |
| c1ccc(C2CC3(N4CCCC4)CCN(CCN4CCCC4)C2C(c2ccccc2)C3)cc1 (racemic) | 17.2 | 116 | 3380 nM | 58200 nM | 500 nM |
| c1ccc(C2CC3(N4CCCCC4)CCN(CCN4CCCC4)C2C(c2ccccc2)C3)cc1 (racemic) | 6.09 | 1690 | 25600 nM | 156000 nM | 92 nM |
| Clc1ccc(C2CC3(N4CCCCC4)CCN(CCc4ccccc4)C2C(c2ccc(Cl)cc2)C3)cc1 (racemic) | 4.24 | 10.8 | 1860 nM | 7890 nM | 730 nM |
| C[C@@H]1CC[C@H]2[C@@H](C)C(=O)O[C@@H]3O[C@@]4(C)CC[C@@H]1[C@]32OO4 [ARTEMISININ] | – | – | – | – | 6.4 nM |
